Laboratory results as given in US6762174B1 (priority 1998, dated 2004).
Read-outs that look alike come from different tables or passages of the source.

Experiments:
[1] = test system: MOPC-315 myeloma; test: MOPC-315 Myeloma study #2: β-alethine ip day 10 (1 × 10^6 tumor cells); settings: for Mean Tumor Size: 3 mg BT alone
[2] = test system: MOPC-315 myeloma; test: MOPC-315 Myeloma study #3: β-alethine ip day 0 (3 × 10^5 tumor cells); settings: for Animals Surviving: BT 100 ng/kg
[3] = test system: B16 melanoma; format: in vivo, female BDF1 mice
[4] = test system: MT-1 breast cancer xenograft
[5] = test system: MT-1 breast cancer xenograft; test: MT-1 breast cancer xenograft: BT by intratumor injection; format: in vivo, male nude mice; set-up: Median RTV: unit not given here; settings: for Median RTV: BT 30 ng intratumor
Procedure: In a parallel experiment, a low dose of 30 ng of BT was injected directly into the tumor on days 3, 17 and 31. The T/C for RTV measured on day 35 was 50%.

[6] = test system: MT-1 breast cancer xenograft; remark: listed apart in the source

NCCC(=O)NCCSSCCNC(=O)CCN [BT, β-alethine]
Mean Tumor Size ([1]; day 10): 21.5 mm
Mean Tumor Size ([1]; day 14): 24 mm
Mean Tumor Size ([1]; day 17): 24 mm
Mean Tumor Size ([1]; day 21): (dead)
Animals Surviving ([1]; BT 3 ng/kg, day 10): 10
Animals Surviving ([1]; BT 3 ng/kg, day 11): 10
Animals Surviving ([1]; BT 3 ng/kg, day 12): 10
Animals Surviving ([1]; BT 3 ng/kg, day 13): 10
Animals Surviving ([1]; BT 3 ng/kg, day 14): 7
Animals Surviving ([1]; BT 3 ng/kg, day 15): 5
Animals Surviving ([1]; BT 3 ng/kg, day 16): 5
Animals Surviving ([1]; BT 3 ng/kg, day 17): 4
Animals Surviving ([1]; BT 3 ng/kg, day 18): 1
Animals Surviving ([1]; BT 3 ng/kg, day 19): 1
Animals Surviving ([1]; BT 3 ng/kg, day 20): 1
Animals Surviving ([1]; BT 3 ng/kg, day 21): 0
Animals Surviving ([1]; BT 100 μg/kg, day 10): 10
Animals Surviving ([1]; BT 100 μg/kg, day 11): 9
Animals Surviving ([1]; BT 100 μg/kg, day 12): 6
Animals Surviving ([1]; BT 100 μg/kg, day 13): 5
Animals Surviving ([1]; BT 100 μg/kg, day 14): 5
Animals Surviving ([1]; BT 100 μg/kg, day 15): 5
Animals Surviving ([1]; BT 100 μg/kg, day 16): 4
Animals Surviving ([1]; BT 100 μg/kg, day 17): 4
Animals Surviving ([1]; BT 100 μg/kg, day 18): 1
Animals Surviving ([1]; BT 100 μg/kg, day 19): 1
Animals Surviving ([1]; BT 100 μg/kg, day 20): 0
Animals Surviving ([1]; BT 3 mg/kg, day 10): 10
Animals Surviving ([1]; BT 3 mg/kg, day 11): 9
Animals Surviving ([1]; BT 3 mg/kg, day 12): 6
Animals Surviving ([1]; BT 3 mg/kg, day 13): 5
Animals Surviving ([1]; BT 3 mg/kg, day 14): 5
Animals Surviving ([1]; BT 3 mg/kg, day 15): 5
Animals Surviving ([1]; BT 3 mg/kg, day 16): 4
Animals Surviving ([1]; BT 3 mg/kg, day 17): 4
Animals Surviving ([1]; BT 3 mg/kg, day 18): 1
Animals Surviving ([1]; BT 3 mg/kg, day 19): 1
Animals Surviving ([1]; BT 3 mg/kg, day 20): 0
Animals Surviving ([1]; BT 30 fg/kg, day 10): 10
Animals Surviving ([1]; BT 30 fg/kg, day 11): 10
Animals Surviving ([1]; BT 30 fg/kg, day 12): 9
Animals Surviving ([1]; BT 30 fg/kg, day 13): 7
Animals Surviving ([1]; BT 30 fg/kg, day 14): 5
Animals Surviving ([1]; BT 30 fg/kg, day 15): 5
Animals Surviving ([1]; BT 30 fg/kg, day 16): 1
Animals Surviving ([1]; BT 30 fg/kg, day 17): 1
Animals Surviving ([1]; BT 30 fg/kg, day 18): 0
Animals Surviving ([2]; day 10): 10
Animals Surviving ([2]; day 11): 10
Animals Surviving ([2]; day 12): 10
Animals Surviving ([2]; day 13): 10
Animals Surviving ([2]; day 14): 7
Animals Surviving ([2]; day 17): 0
survival prolonged to ([2]; BT 3 mg/kg, control 16 days): 18 days
Primary Tumor Size (Median RTV) ([3]; BT 30 pg/kg alone, day 0): 1
Primary Tumor Size (Median RTV) ([3]; BT 30 pg/kg alone, day 4): 1.0
Primary Tumor Size (Median RTV) ([3]; BT 30 pg/kg alone, day 7): 1.8
Primary Tumor Size (Median RTV) ([3]; BT 30 pg/kg alone, day 10): 6.0
Primary Tumor Size (Median RTV) ([3]; BT 30 pg/kg alone, day 14): 17.3
Primary Tumor Size (Median RTV) ([3]; BT 30 pg/kg alone, day 17): 62.0
Primary Tumor Size (Median RTV) ([3]; BT 30 ng/kg alone, day 0): 1
Primary Tumor Size (Median RTV) ([3]; BT 30 ng/kg alone, day 4): 1.0
Primary Tumor Size (Median RTV) ([3]; BT 30 ng/kg alone, day 7): 3.1
Primary Tumor Size (Median RTV) ([3]; BT 30 ng/kg alone, day 10): 8.1
Primary Tumor Size (Median RTV) ([3]; BT 30 ng/kg alone, day 14): 15.7
Primary Tumor Size (Median RTV) ([3]; BT 30 ng/kg alone, day 17): 32.4
Primary Tumor Size (Median RTV) ([3]; BT 30 ug/kg alone, day 0): 1
Primary Tumor Size (Median RTV) ([3]; BT 30 ug/kg alone, day 4): 1.0
Primary Tumor Size (Median RTV) ([3]; BT 30 ug/kg alone, day 7): 1.3
Primary Tumor Size (Median RTV) ([3]; BT 30 ug/kg alone, day 10): 5.5
Primary Tumor Size (Median RTV) ([3]; BT 30 ug/kg alone, day 14): 16.6
Primary Tumor Size (Median RTV) ([3]; BT 30 ug/kg alone, day 17): 30.4
Primary Tumor Size (Median RTV) ([3]; BT 30 mg/kg alone, day 0): 1
Primary Tumor Size (Median RTV) ([3]; BT 30 mg/kg alone, day 4): 1.7
Primary Tumor Size (Median RTV) ([3]; BT 30 mg/kg alone, day 7): 3.3
Primary Tumor Size (Median RTV) ([3]; BT 30 mg/kg alone, day 10): 7.5
Primary Tumor Size (Median RTV) ([3]; BT 30 mg/kg alone, day 14): 23.2
Primary Tumor Size (Median RTV) ([3]; BT 30 mg/kg alone, day 17): 34.8
Primary Tumor Size (Median RTV) ([3]; BT 30 fg/kg alone, day 0): 1
Primary Tumor Size (Median RTV) ([3]; BT 30 fg/kg alone, day 4): 1.7
Primary Tumor Size (Median RTV) ([3]; BT 30 fg/kg alone, day 7): 2.4
Primary Tumor Size (Median RTV) ([3]; BT 30 fg/kg alone, day 10): 7.0
Primary Tumor Size (Median RTV) ([3]; BT 30 fg/kg alone, day 14): 16.1
Primary Tumor Size (Median RTV) ([3]; BT 30 fg/kg alone, day 17): 41.6
Median Tumor Size ([4]; BT 30 ng/kg every 14 days, day 13): 0.080 cm^3
Median Tumor Size ([4]; BT 30 ng/kg every 14 days, day 16): 0.104 cm^3
Median Tumor Size ([4]; BT 30 ng/kg every 14 days, day 20): 0.176 cm^3
Median Tumor Size ([4]; BT 30 ng/kg every 14 days, day 23): 0.202 cm^3
Median Tumor Size ([4]; BT 30 ng/kg every 14 days, day 27): 0.250 cm^3
Median Tumor Size ([4]; BT 30 ng/kg every 14 days, day 30): 0.294 cm^3
Median Tumor Size ([4]; BT 30 ng/kg every 14 days, day 34): 0.298 cm^3
Median Tumor Size ([4]; BT 30 ng/kg every 14 days, day 38): 0.426 cm^3
Median Tumor Size ([4]; BT 30 ng/kg every 14 days, day 41): 0.429 cm^3
Median Tumor Size ([4]; BT 30 ng/kg every 14 days, day 45): 0.419 cm^3
RTV ([4]; BT 30 ng, day 13): 1
RTV ([4]; BT 30 ng, day 16): 1.4
RTV ([4]; BT 30 ng, day 20): 2.1
RTV ([4]; BT 30 ng, day 23): 2.3
RTV ([4]; BT 30 ng, day 27): 2.8
RTV ([4]; BT 30 ng, day 30): 3.4
RTV ([4]; BT 30 ng, day 34): 3.8
RTV ([4]; BT 30 ng, day 38): 4.5
RTV ([4]; BT 30 ng, day 41): 4.9
RTV ([4]; BT 30 ng, day 45): 6.0
Median Tumor Size ([4]; BT 30 ug/kg every 14 days, day 13): 0.055 cm^3
Median Tumor Size ([4]; BT 30 ug/kg every 14 days, day 16): 0.095 cm^3
Median Tumor Size ([4]; BT 30 ug/kg every 14 days, day 20): 0.180 cm^3
Median Tumor Size ([4]; BT 30 ug/kg every 14 days, day 23): 0.193 cm^3
Median Tumor Size ([4]; BT 30 ug/kg every 14 days, day 27): 0.325 cm^3
Median Tumor Size ([4]; BT 30 ug/kg every 14 days, day 30): 0.408 cm^3
Median Tumor Size ([4]; BT 30 ug/kg every 14 days, day 34): 0.410 cm^3
Median Tumor Size ([4]; BT 30 ug/kg every 14 days, day 38): 0.607 cm^3
Median Tumor Size ([4]; BT 30 ug/kg every 14 days, day 41): 0.696 cm^3
Median Tumor Size ([4]; BT 30 ug/kg every 14 days, day 45): 0.743 cm^3
RTV ([4]; BT 30 ug, day 13): 1
RTV ([4]; BT 30 ug, day 16): 1.4
RTV ([4]; BT 30 ug, day 20): 2.6
RTV ([4]; BT 30 ug, day 23): 3.0
RTV ([4]; BT 30 ug, day 27): 4.3
RTV ([4]; BT 30 ug, day 30): 5.2
RTV ([4]; BT 30 ug, day 34): 6.0
RTV ([4]; BT 30 ug, day 38): 9.1
RTV ([4]; BT 30 ug, day 41): 11.5
RTV ([4]; BT 30 ug, day 45): 14.0
Median Tumor Size ([4]; BT 30 fg/kg every 14 days, day 13): 0.104 cm^3
Median Tumor Size ([4]; BT 30 fg/kg every 14 days, day 16): 0.128 cm^3
Median Tumor Size ([4]; BT 30 fg/kg every 14 days, day 20): 0.213 cm^3
Median Tumor Size ([4]; BT 30 fg/kg every 14 days, day 23): 0.253 cm^3
Median Tumor Size ([4]; BT 30 fg/kg every 14 days, day 27): 0.442 cm^3
Median Tumor Size ([4]; BT 30 fg/kg every 14 days, day 30): 0.637 cm^3
Median Tumor Size ([4]; BT 30 fg/kg every 14 days, day 34): 1.062 cm^3
Median Tumor Size ([4]; BT 30 fg/kg every 14 days, day 38): 1.241 cm^3
Median Tumor Size ([4]; BT 30 fg/kg every 14 days, day 41): 1.464 cm^3
Median Tumor Size ([4]; BT 30 fg/kg every 14 days, day 45): 1.911 cm^3
RTV ([4]; BT 30 fg, day 13): 1
RTV ([4]; BT 30 fg, day 16): 1.6
RTV ([4]; BT 30 fg, day 20): 3.4
RTV ([4]; BT 30 fg, day 23): 4.4
RTV ([4]; BT 30 fg, day 27): 7.6
RTV ([4]; BT 30 fg, day 30): 9.3
RTV ([4]; BT 30 fg, day 34): 11.9
RTV ([4]; BT 30 fg, day 38): 16.1
RTV ([4]; BT 30 fg, day 41): 18.2
RTV ([4]; BT 30 fg, day 45): 19.8
T/C for RTV ([5]; 30 ng BT into the tumor days 3, 17, 31, day 35): 50%
Median RTV ([5]; day 8): 1.27
Median RTV ([5]; day 11): 1.40
Median RTV ([5]; day 14): 1.77
Median RTV ([5]; day 17): 2.61
Median RTV ([5]; day 21): 3.74
Median RTV ([5]; day 24): 4.34
Median RTV ([5]; day 28): 4.93
Median RTV ([5]; day 31): 6.37
Median RTV ([5]; day 35): 8.01
T/C RTV d 49 ([6]; BT 30 mg/kg): 72%
T/C RTV d 59 ([6]; BT 30 mg/kg): 165%
effectiveness ([6]; BT 30 mg/kg alone): not effective
WBC d 46 ([6]; mouse, in vivo): 14.4 10^6/mL
